Test results taken from patent publication US20140243332A1, “METHODS OF TREATING CANCERS CHARACTERIZED BY ABERRENT ROS1 ACTIVITY” (Oregon Health & Science University, priority 2013, published 2014).

Experiments:
HCC78 cells = experiment: Cell viability (MTS) assay, HCC78; type: cell-based, human; conditions: Homo sapiens, 72 hour exposure, read-out: IC50 HCC78 cell growth
Method: (§1) The parental Ba/F3 cell line was cultured in RPMI 1640 medium with 10% FBS, L-glutamine, penicillin/streptomycin and 15% WEHI-conditioned media. Ba/F3 cell lines were maintained at densities of 0.5×10^6 to 1.5×10^6 per ml of media. FIG-ROS and SLC-ROS Ba/F3 lines were created by infecting the parental Ba/F3 with retrovirus expressing either human FIG-ROS-S (indicated FIG-ROS herein) or SLC-ROS-S (indicated SLC-ROS herein). Stable transfectant lines were sorted for GFP expression on a FACS Aria® flow cytometer. Cells were counted daily using Guava ViaCount® reagent and Guava Personal Cell Analysis® flow cytometer. […] Early passage NIH3T3 cells were infected with retrovirus expressing either FIG-ROS or SLC-ROS and sorted for GFP expression as described above for Ba/F3 cells. HCC78 cells were cultured in RPMI 1640 medium with 10% FBS, L-glutamine, and penicillin/streptomycin. This media is referred to as RPMI-10% FBS herein.

[1] = molecular target: Ba/F3 FIG-ROS kinase domain mutants (Homo sapiens, UniProt P08922, cells depend on it, form not given); experiment: Cell viability assay, all tested Ba/F3 FIG-ROS kinase domain mutants; type: cell-based; conditions: V2098I, G1971E, L1982F, C2060G, L1947R, E1935G; read-out: IC50 across all tested FIG-ROS mutants
Method: (§2) Cell lines were distributed in 96-well plates and incubated with the indicated concentrations of inhibitor for 72 hours. […] Ba/F3 cell lines were plated at 4×10^3 cells/well. HCC78 and mCC cell lines were plated at 1.5×10^3 cells/well. All cell types were seeded in a final volume of 80 microliters. A 20 microliter volume of five-fold concentrated inhibitor media was added. Cell proliferation was measured using a […] viability assay (CellTiter96 Aqueous One® Solution; Promega). A BioTek Synergy 2® plate reader was used to read the absorbance at 490 nm at 30 minutes and 1 hour after addition of MTS. To facilitate comparison between experiments, the raw MTS absorbance of vehicle (0.1% DMSO) treated cells was set to 1 and absorbance from inhibitor treated wells was normalized to the vehicle treated value. […] Data were normalized using Microsoft Excel® and further non-linear regression curve fit analysis of the normalized data for determination of IC50 was performed using Graphpad Prism® software.
(§3) The FIG-ROS-S fusion gene was synthesized using the GeneArt® service. FIG-ROS-S is denoted as FIG-ROS herein.

[2] = test system: FIG-ROS and ROS-1 effector pathway phosphorylation; experiment: Immunoblot of FIG-ROS tumor lysates after oral gavage; type: in vivo, mice; conditions: 25 mg/kg oral gavage
Method: FIG. 3D is an image of an immunoblot of tumor lysates probed for phosphorylated and total ROS1, phosphorylated and total Shpt, phosphorylated and total Stat3, phosphorylated and total Src as well as tubulin as a loading control.
Ba/F3 FIG-ROS, Ba/F3 SLC-ROS, HCC78 and mCC cell lines were treated with the indicated concentration of inhibitors for 1-2 hours. […] The protein content of the cell lysates was determined and lysates were either used for immunoprecipitation where indicated or extracted with SDS Sample buffer for 15 minutes at 80° C. Proteins were transferred to Immobilon-FL membranes and immunoblotted with antibodies specific for phospho-ROS1 (Cell Signaling Technology (CST) #3078), total ROS1 (CST #3266), phopsho-Shp2 (CST #3751), total Shpt (CST #3752), phospho-Stat3 (CST #9145), total Stat3 (CST #4904), phospho-Erk1/2 (CST #9101), total Erk2 (Santa Cruz #SC-1647), phospho-S6 (CST #4858), total S6 (CST #2216), phospho-Src (CST #2105), total Src (CST #2110), α-tubulin (Sigma T6199), or β-actin (Sigma A1978) as indicated. Images of the blots were generated by the LI-COR Odyssey® imaging system, following the manufacturer's protocol for immunoblot detection with use of IR-dye conjugated secondary antibodies.
Concomitant with diminished FIG-ROS activation, phosphorylation of Shpt and Stat3, but not Src is inhibited in the treated tumors.

[3] = molecular target: Ba/F3 FIG-ROS C2060G cells (Homo sapiens, UniProt P08922, C2060G, cells depend on it); experiment: Cell viability assay, Ba/F3 FIG-ROS C2060G; type: cell-based; conditions: Table 3, Ba/F3 FIG-ROS C2060G; nM; read-out: IC50 (the source's name)
Method: as §2, §3

FIG-ROS = FIG-ROS (Homo sapiens, UniProt P08922); experiment: Immunoblot of NIH3T3 FIG-ROS lysates; type: cell-based; design: expressed in transfected cells; host or cells: Ba/F3 (A14) and NIH3T3 (A24), retroviral pMSCV-IRES-GFP; the other entry of the earlier key: GOPC (Q9HD26, Golgi-associated PDZ and coiled-coil motif-containing protein); conditions: NIH3T3 FIG-ROS cells, 1 hour, at lower doses than crizotinib
Method: as §1

NIH3T3 FIG-ROS cells = experiment: Soft agar colony formation, NIH3T3 FIG-ROS; type: cell-based; conditions: at lower doses than crizotinib
Source text: The bottom panels are bar graphs indicating the number of colonies formed from the plates depicted in the top panels. The values indicate average colony number±SEM from 4 independent wells.

[4] = molecular target: Ba/F3 FIG-ROS L1947R cells (Homo sapiens, UniProt P08922, L1947R, cells depend on it); experiment: Cell viability assay, Ba/F3 FIG-ROS L1947R; type: cell-based; conditions: Table 3, Ba/F3 FIG-ROS L1947R; nM; read-out: IC50 (the source's name)
Method: as §2, §3

Ba/F3 parental cells = experiment: Cell viability (MTS) assay, Ba/F3 parental; type: cell-based; conditions: Mus musculus, BaF3, read-out: IC50 (insensitive/resistant up to stated concentration)
Method: as §1
[…]. The Ba/F3 parental line was also tested. (O'Dwyer M E and Druker B J, Lancet Oncology 1, 207-211 (2000); Walters D K et al, Cancer Cell 10, 65-75 (2006); and Heukamp L C et al, Science Translational Medicine 4, 141ra191 (2012); […].

[5] = molecular target: Ba/F3 FIG-ROS E1935G cells (Homo sapiens, UniProt P08922, E1935G, cells depend on it); experiment: Cell viability assay, Ba/F3 FIG-ROS E1935G; type: cell-based; conditions: Table 3, Ba/F3 FIG-ROS E1935G; nM; read-out: IC50 (the source's name)
Method: as §2, §3

HCC4011 cells = experiment: Cell viability assay, HCC4011; type: cell-based, human; conditions: HCC4011 cells (activated EGFR), FIG. 6B
Method: IC50 was determined from non-linear regression curve fit analysis of the dose response curves.

For `COc1cc2c(Oc3ccc(NC(=O)C4(C(=O)Nc5ccc(F)cc5)CC4)cc3F)ccnc2cc1OCCCN1CCOCC1` [foretinib, N1′-[3-fluoro-4-[[6-methoxy-7-(3-morpholinopropoxy)-4-quinolyl]oxy]phenyl]-N1-(4-fluorophenyl)cyclopropane-1,1-dicarboxamide], the IC50 (HCC78 cells) was 425 nM, the GI50 [1] was less than 20 nM and the “intra-tumoral phosphorylation of Shpt and Stat3” value ([2]; FIG-ROS tumors) was “is inhibited”. For the same compound, the “intra-tumoral phosphorylation of Src” value ([2]; FIG-ROS tumors) was “but not Src”, the “intra-tumoral FIG-ROS phosphorylation” value ([2]; tumors harvested at 1, 2, 4 and 8 hours) was “Rapid and robust inhibition” and the GI50 [3] was 13.6 nM. The FIG-ROS phosphorylation (FIG-ROS) was “strongly suppressed”, the anchorage-independent colony formation (NIH3T3 FIG-ROS cells) was “strongly suppressed” and the GI50 [4] was 17.9 nM. The IC50 (Ba/F3 parental cells) was greater than 2000 nM, the GI50 [5] was 6.6 nM and the “sensitivity of cell growth” value (HCC4011 cells) was “relatively insensitive”.
